Test results taken from US8815946B2, “Inhibition of proliferation and fibrotic response of activated corneal stromal cells” (University of Pittsburgh—of the Commonwealth System of …, priority 2008, dated 2014).
Entries after “also recorded” stand apart in the source; their conditions may differ.

Tested on: alpha-smooth muscle actin
Test: Western blot of TGF-β1 activated rabbit corneal keratocytes: alpha-smooth muscle actin
Assay type: cell-based
Conditions: TGF-β1 (10 ng/ml)+1% FBS, two days, compared to controls with no treatment, listed as EP
Experimental: FIGS. 19A and 19B. Western blot analyses: Rabbit corneal keratocytes were isolated and cultured in serum-free DMEM/F12 into 60 mm tissue culture dishes. After 24 hrs of incubation, the media were replaced with DMEM/F12 medium containing TGF-β1(10 ng/ml)+1% FBS without (control) or with EP or EP-derivatives for two days. The cells were extracted in RIPA buffer and the extracts containing 5 μg of total proteins were loaded per lane for Western blot analysis.
Keratocytes or fibroblasts grown under different culture conditions were extracted in RIPA buffer (9.1 mM dibasic sodium phosphate, 1.7 mM monobasic sodium phosphate, 150 mM NaCl, pH, 7.4, 1% Nonidet P-40, 0.5% sodium deoxycholate, 0.1% SDS, 0.03 TIU/mL aprotinin, 1 mM sodium orthovanadate, and 100 μg/mL phenylmethylsulfonyl fluoride (PMSF)). Aliquots of cell extracts containing 50 or 100 μg protein were subjected to SDS-PAGE. Protein bands on SDS-PAGE were electrophoretically transferred to IMMOBILON-P™ membrane (Millipore Corp., Bedford, Mass.), stained with 0.1% Coomassie blue 250 in 40% methanol/1% acetic acid for 1 minute, destained one to three times with 50% methanol/1% acetic acid, scanned for densitometric comparisons of relative concentrations of proteins per lane, destained with methanol, and subjected to Western blot analysis. Immunoreactive bands were detected using chemiluminescence Western chemiluminescence reagents.
As described in Example 1, corneal stromal cells were isolated from rabbit corneas and cultured using the same procedures. The keratocytes in serum free media were treated with b-FGF (40 ng/ml)+HS (5 μg/ml) with or without 15 mM EP or 1, 2.5 or 5 mM following EP derivatives: 2-oxopropionic acid 3-methoxyphenyl ester, 2-oxopropionic acid 2-ethoxyethyl ester, 2-oxopropionic acid 2-chloroethyl ester, 2-oxopropionic acid isopropyl ester, 2-oxopropionic acid butyl ester, 2-oxopropionic acid p-tolyl ester, 2-oxopropionic acid tert-butyl ester. […] The relative levels of the expression of specific proteins were analyzed by Western blot analyses of the cell lysates as described supra.

In the case of `CCOC(=O)C(C)=O` [ethyl pyruvate], the “alpha-smooth muscle actin levels (Western blot)” value is reported as “reduced expression; also recorded: reduced levels”.
